# Source: ChEMBL document CHEMBL1123583 (J Med Chem, 1987)
# Tests used:
# [1] = Acid dissociation constant was determined for the compound; assay type: ADME
# [2] = target: Histamine H2 receptor (Cavia porcellus) (UniProt P47747)
# [3] = target: Histamine H2 receptor (Cavia porcellus) (UniProt P47747); remark: listed apart in the source
# [4] = target: Histamine H2 receptor (Cavia porcellus) (UniProt P47747); remark: listed apart in the source
# Histamine H2 receptor [5] = target: T1, Histamine H2 receptor (Cavia porcellus, UniProt P47747); test: Antagonistic activity of guinea pig Histamine H2 receptor expressed as pA2 at pH 7.0; assay type: functional; conditions: read-out: pA2 (converted)
# Histamine H2 receptor [6] = target: T1, Histamine H2 receptor; test: Antagonistic activity of guinea pig Histamine H2 receptor expressed as pA2 at pH 7.4; assay type: functional; conditions: read-out: pA2 (converted)
# Histamine H2 receptor [7] = target: T1, Histamine H2 receptor; test: Antagonistic activity of guinea pig Histamine H2 receptor expressed as pA2 at pH 7.8; assay type: functional; conditions: read-out: pA2 (converted)
# T1 sequence (P47747 whole entry): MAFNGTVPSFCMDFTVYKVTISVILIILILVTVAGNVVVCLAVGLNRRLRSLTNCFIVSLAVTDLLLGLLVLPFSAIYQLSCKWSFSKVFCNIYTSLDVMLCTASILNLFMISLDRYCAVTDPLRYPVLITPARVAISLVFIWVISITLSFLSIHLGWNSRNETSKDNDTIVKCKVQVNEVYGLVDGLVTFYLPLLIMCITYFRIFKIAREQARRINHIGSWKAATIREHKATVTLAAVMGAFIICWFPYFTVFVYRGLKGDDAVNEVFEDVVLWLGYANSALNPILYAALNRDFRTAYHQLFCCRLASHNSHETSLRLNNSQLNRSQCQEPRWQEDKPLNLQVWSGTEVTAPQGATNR
# Chain of Histamine H2 receptor (Cavia porcellus) (P47747 whole entry): as above
pKa ([1]; read-out: pKa1),pKa ([1]; read-out: pKa2),pD2 [2],pD2 [3],pD2 [4],Kb (Histamine H2 receptor [5]),Kb (Histamine H2 receptor [6]),Kb (Histamine H2 receptor [7]),SMILES
9.57,6.1,5.89,5.81,5.88,,,,NCCc1c[nH]cn1 [HISTAMINE]
8.82,5.64,,,,45.7 nM,17.4 nM,11.7 nM,CC(C)/N=C/Nc1ccc(-c2c[nH]cn2)cc1 [MIFENTIDINE]

SMILES,pKa ([1]; read-out: pKa1),pKa ([1]; read-out: pKa2),pD2 [2],pD2 [3],pD2 [4],Kb (Histamine H2 receptor [5]),Kb (Histamine H2 receptor [6]),Kb (Histamine H2 receptor [7])
CN/C(=N/CCSCc1nc[nH]c1C)NC#N [CIMETIDINE],6.98,,,,,,,
